From ChEMBL document CHEMBL2417439, “Selected furanochalcones as inhibitors of monoamine oxidase” (Bioorg Med Chem Lett, 2013)

Experiments:
[1] = target: T1, Amine oxidase [flavin-containing] A (Rattus norvegicus, UniProt P21396); experiment: Displacement of [14C]-5HT from rat MAO-A after 20 mins by liquid scintillation counting analysis
T1 sequence (P21396 whole entry): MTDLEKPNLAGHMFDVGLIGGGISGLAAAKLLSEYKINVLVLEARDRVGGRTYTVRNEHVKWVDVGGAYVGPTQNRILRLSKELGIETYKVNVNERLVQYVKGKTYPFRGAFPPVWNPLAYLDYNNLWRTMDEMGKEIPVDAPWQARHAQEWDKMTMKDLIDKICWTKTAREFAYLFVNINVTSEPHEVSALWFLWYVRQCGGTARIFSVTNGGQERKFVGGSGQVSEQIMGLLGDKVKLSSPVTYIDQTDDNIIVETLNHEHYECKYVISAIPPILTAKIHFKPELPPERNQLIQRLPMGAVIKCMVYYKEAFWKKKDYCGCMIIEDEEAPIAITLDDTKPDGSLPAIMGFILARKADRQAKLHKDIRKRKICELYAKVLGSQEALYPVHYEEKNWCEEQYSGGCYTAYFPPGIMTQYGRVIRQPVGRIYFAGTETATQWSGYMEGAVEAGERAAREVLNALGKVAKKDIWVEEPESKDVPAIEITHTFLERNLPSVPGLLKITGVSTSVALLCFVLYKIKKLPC

[2] = target: T2, Amine oxidase [flavin-containing] B (Rattus norvegicus, UniProt P19643); experiment: Displacement of [14C]-beta-PEA from rat MAO-B after 20 mins by liquid scintillation counting analysis
T2 sequence (P19643 whole entry): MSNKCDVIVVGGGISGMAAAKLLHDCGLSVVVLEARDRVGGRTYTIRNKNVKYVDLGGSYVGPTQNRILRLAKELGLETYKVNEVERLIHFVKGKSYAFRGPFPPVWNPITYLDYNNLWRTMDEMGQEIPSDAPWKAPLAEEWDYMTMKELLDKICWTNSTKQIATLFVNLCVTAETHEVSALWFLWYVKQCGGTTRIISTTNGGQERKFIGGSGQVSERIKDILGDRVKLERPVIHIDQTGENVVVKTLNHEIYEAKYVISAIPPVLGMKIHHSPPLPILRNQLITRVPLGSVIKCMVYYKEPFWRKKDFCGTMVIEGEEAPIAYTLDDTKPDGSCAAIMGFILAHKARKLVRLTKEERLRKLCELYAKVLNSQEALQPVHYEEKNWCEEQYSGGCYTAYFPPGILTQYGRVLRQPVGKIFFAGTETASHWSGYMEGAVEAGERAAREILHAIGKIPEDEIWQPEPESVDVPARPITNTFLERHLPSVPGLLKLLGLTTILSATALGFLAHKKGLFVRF

[3] = target: T3, Amine oxidase [flavin-containing] A (Homo sapiens, UniProt P21397); experiment: Inhibition of human recombinant MAO-A expressed in insect cell microsomes using kynuramine as substrate assessed as formation of 4-hydroxyquinoline by fluorometric method; set-up: species or system Microsome
T3 sequence (P21397 whole entry): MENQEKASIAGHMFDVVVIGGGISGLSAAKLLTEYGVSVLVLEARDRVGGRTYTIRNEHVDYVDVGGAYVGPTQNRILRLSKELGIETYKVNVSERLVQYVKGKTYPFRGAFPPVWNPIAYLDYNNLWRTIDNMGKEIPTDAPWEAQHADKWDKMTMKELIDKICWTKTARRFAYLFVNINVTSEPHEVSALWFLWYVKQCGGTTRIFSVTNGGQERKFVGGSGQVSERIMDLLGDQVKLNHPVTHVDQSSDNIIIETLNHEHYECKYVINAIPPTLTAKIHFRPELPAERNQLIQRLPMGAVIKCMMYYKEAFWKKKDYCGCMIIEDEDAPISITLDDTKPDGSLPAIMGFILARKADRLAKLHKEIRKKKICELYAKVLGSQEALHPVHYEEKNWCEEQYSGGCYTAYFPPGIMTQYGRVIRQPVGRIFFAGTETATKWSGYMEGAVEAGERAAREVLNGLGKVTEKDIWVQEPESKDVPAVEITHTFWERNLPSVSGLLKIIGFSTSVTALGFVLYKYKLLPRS

[4] = species on record: Homo sapiens; experiment: Selectivity index, ratio of IC50 for human recombinant MAO-A to IC50 for human recombinant MAO-B
[5] = target: T4, Amine oxidase [flavin-containing] B (Homo sapiens, UniProt P27338); experiment: Inhibition of human recombinant MAO-B expressed in insect cell microsomes using kynuramine as substrate assessed as formation of 4-hydroxyquinoline by fluorometric method; set-up: species or system Microsome
T4 sequence (P27338 whole entry): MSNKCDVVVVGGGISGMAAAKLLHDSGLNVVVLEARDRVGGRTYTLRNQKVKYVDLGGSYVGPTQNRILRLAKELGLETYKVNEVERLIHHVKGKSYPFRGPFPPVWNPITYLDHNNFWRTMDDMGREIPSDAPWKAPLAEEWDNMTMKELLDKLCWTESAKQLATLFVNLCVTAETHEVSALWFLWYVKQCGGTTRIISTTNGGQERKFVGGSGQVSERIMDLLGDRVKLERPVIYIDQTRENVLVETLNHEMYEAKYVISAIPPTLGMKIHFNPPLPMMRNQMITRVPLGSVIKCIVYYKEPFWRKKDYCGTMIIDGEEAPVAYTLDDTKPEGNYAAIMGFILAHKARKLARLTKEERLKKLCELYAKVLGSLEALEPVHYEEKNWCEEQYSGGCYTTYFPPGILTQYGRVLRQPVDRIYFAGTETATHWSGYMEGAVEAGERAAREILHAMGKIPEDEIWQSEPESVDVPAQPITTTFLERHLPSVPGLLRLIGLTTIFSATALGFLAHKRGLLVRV

[6] = target: T3, Amine oxidase [flavin-containing] A; experiment: Inhibition of human recombinant MAO-A expressed in insect cell microsomes using kynuramine as substrate assessed as formation of 4-hydroxyquinoline at 100 uM by fluorometric method; set-up: species or system Microsome

IC50 [1] [µM]	IC50 [2] [µM]	IC50 [3] [µM]	Ratio IC50 [4]	IC50 [5] [µM]	inhibition (INH) [6]	SMILES
13.9	47.2					O=C(/C=C/c1ccc(O)cc1)c1ccc(O)cc1O [ISOLIQUIRITIGENIN]
		18.6	20	0.924		Cc1ccc(C(=O)/C=C/c2ccc(F)cc2)o1
					Not Active	COc1cccc(/C=C/C(=O)c2ccc(C)o2)c1
		85.7	121	0.707		Cc1ccc(C(=O)/C=C/c2ccc(Br)cc2)o1
